Entries after “also recorded” stand apart in the source; their conditions may differ.
Experiments:
[1] = tested on: Mel-1 melanoma cells; experiment: combination with chemotherapy, total cell number; assay type: cell-based; settings: 48 hours
Protocol: The cells were grown for 24 hours in medium. The cells were given fresh medium and either 1 μM of cisplatin or 200 μM of temozolamide was added. Total cell number was counted on Day 0, at 24 hours, and 48 hours after addition of cisplatin or temozolamide.
After 24 hours, the treated and mock-treated cells were given fresh medium, and the cells were treated with cisplatin or temozolamide for 48 hours.

[2] = tested on: histone H3 and H4 acetylation in C3H 10T1/2 mouse fibroblasts; experiment: histone acetylation Western blot in mouse cells; assay type: cell-based
Excerpt: Histones in mammalian cells show characteristic rates of turnover of acetylation, with a majority showing slower rates and a very minor fraction showing very fast turnover. This latter fraction has been associated with gene activation, and is defined by rapid hyperacetylation in the presence of deacetylase inhibitors such as Trichostatin A (TSA). In addition to SDS gels (FIG. 9A), Acid-Urea gels (AU, FIG. 9B) were used, on which loss of a positive charge upon lysine acetylation retards migration, producing a ladder of bands corresponding to integral changes in acetylation.
C3H 10T1/2 mouse fibroblasts were grown in DMEM with 10% FCS at 37° C. with 5% CO2. Confluent cultures were rendered quiescent in DMEM with 0.5% FCS for 18-20 h prior to treatment. […] Antibodies were used at the following concentrations: total H3 (1:10000; ab7834; Abcam); H4K12ac (1:2500; 06-761; Upstate). Rabbit anti-H3K9ac (1:10000) antibodies were generated in-house. Histones were isolated from cells by acid extraction, separated by SDS and acid-urea polyacrylamide gel electrophoresis and analyzed by Western blotting.

[3] = target: T1, p300 HAT (Homo sapiens, UniProt Q09472, DEL1529-1560/M1652G); experiment: direct radioactive p300 HAT assay (14C-acetyl-CoA transfer to H4-15); assay type: biochemical
T1 construct: A variant of the HAT domain of p300 (residues 1287 to 1652) was expressed as a fusion; a C-terminal peptide corresponding to residues 1653-1666 of p300; made in house; host or cells: E. coli BL21(RIL)-DE3; C-terminal peptide by solid phase synthesis
T1 sequence (Q09472 with tags, fused parts or gaps DEL1529-1560/M1652G limits assumed): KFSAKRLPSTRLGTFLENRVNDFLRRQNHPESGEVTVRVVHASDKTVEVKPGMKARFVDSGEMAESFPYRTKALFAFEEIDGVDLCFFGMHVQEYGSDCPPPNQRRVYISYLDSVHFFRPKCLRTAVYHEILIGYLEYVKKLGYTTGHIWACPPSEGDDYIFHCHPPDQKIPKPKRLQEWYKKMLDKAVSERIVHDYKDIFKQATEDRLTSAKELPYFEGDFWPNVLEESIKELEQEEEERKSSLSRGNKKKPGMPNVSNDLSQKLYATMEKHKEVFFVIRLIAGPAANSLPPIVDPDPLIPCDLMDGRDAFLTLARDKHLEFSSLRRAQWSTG
Protocol: In this assay, production of ^14C-labeled Ac-H4-15 is monitored electrophoretically. Reactions were performed in 20 mM HEPES, pH 7.9, and contained 5 mM DTT, 80 μM EDTA, 40 μg/mL BSA, 100 μM H4-15, and 5 nM p300. […] Reactions were incubated at 30° C. for 10 minutes, initiated with addition of a 1:1 mixture of 12 C-acetyl-CoA and 14 C-acetyl-CoA to a final concentration of 20 μM, and allowed to run for 10 min at 30° C. Reactions are then quenched with addition of 14% SDS (w/v). Turnover was kept below 10%. All compounds were screened in duplicate. Samples were then loaded onto a 16% Tris-Tricine gel along with a BSA standard and run at 140 V for 90 minutes. Gels were washed and dried, and exposed in a PhosphorImager cassette for ˜2 days. Bands corresponding to Ac-H4-15 were then quantified using ImageQuant.
Reactions were performed in 20 mM HEPES, pH 7.9, and contained 5 mM DTT, 80 μM EDTA, 40 μg/mL BSA, 100 μM […], and 5 nM p300. Putative inhibitors were added over a range of concentrations, with DMSO concentration kept constant (<5%). Reactions were incubated at 30° C. for 10 minutes, then initiated with addition of a 1:1 mixture of ^12C-acetyl-CoA and ^14C-acetyl-CoA to 20 μM. After […] at 30° C., reactions were quenched with 14% SDS (w/v). All concentrations were screened in duplicate. Gels were run, washed, dried, and exposed to a PhosphorImager plate as described above, and production of Ac-H4-15 quantified. Data were fit to the following equation to obtain IC50s. […]

[4] = tested on: WM983A melanoma cells; experiment: 3H-thymidine incorporation, WM983A; settings: 20 μM, 24 hours

N.N.[Cl][Pt][Cl] [cisplatin]
decrease in cell number ([1]; cells pre-treated with 2 μM C646 for 24 hours, then 1 μM cisplatin or 200 μM temozolamide): 28% | decrease in cell number ([1]; mock-treated cells, 1 μM cisplatin or 200 μM temozolamide): 35%

CC(/C=C/C(=O)NO)=C\[C@@H](C)C(=O)c1ccc(N(C)C)cc1 [TSA, Trichostatin A, reference compound]
acetylation of H3 and H4 ([2]; TSA 33 nM, 30 minutes): increased

CC1=NN(c2ccc(C(=O)O)cc2)C(=O)C1Cc1ccc(-c2cc(C)c(C)cc2[N+](=O)[O-])o1 (stereo not drawn) [Compound C37, 4-{4-[5-(4,5-Dimethyl-2-nitro-phenyl)-furan-2-ylmethyl]-3-methyl-5-oxo-4,5-dihydro-pyrazol-1-yl}-benzoic acid]
p300 HAT inhibition, result in words (analogs compared with C646) [3]: does not detectably block p300 HAT activity; also recorded: did not detectably block p300 HAT activity; also recorded: devoid of p300 HAT inhibitory activity | acetylation of H3 or H4, with and without TSA ([2]; 25 μM, 3 hours): no effect | sensitivity of cell line to compound [4]: resistant

Source: patent US9005670B2, “Use of histone acetyltransferase inhibitors as novel anti-cancer therapies” (The Johns Hopkins University, priority 2010, dated 2015)
